Experimental data published in patent US20250127772A1, “SPECIFIC TETRADENTATE COPPER CHELATORS FOR THE TREATMENT OF WILSON'S DISEASE” (GUANGDONG UNIVERSITY OF TECHNOLOGY, priority 2023, published 2025).
Values joined by “and” are separate entries in the source; they are usually repeats but may differ in a detail not shown here. Equal entries are not always repeated.

Assays:
[1] = tested on: homozygous toxic-milk mouse model (TX model); format: in vivo; conditions: TX mice
Text: The selected drug-candidate TDMQ20 has been evaluated on the homozygous toxic-milk mouse model (TX model), a regular murine model of Wilson disease, suitable for evaluation of drug-candidates (for a review, see E. Reed et al., J. Neurochem., 146, 356-373, 2018). TX mice are bearing a naturally occurring point mutation on ATP7B resulting in a methionine changed for a valine, that causes the loss of copper transportation by this protein. C57BL/6 mice have no mutation on ATP7B and were used as control mice in the evaluation of TDMQ20. TX mice were provided by Sun Yat-Sen University (Guangzhou) and C57BL/6 mice by the Guangdong experimental animal center (Guangzhou) and all experiments were performed according to protocols approved by the Welfare Laboratory Animals Committee of the Guangdong University of Technology (approval n° GDUTXS2022083 dated on 3 Aug. 2022), in the framework of the 3 Rs principle.
[…] TX mice (WD) and 8-week-old C57BL/6 mice (Control) were used. TX mice (as WD, TDMQ-L, TDMQ-M, TDMQ-H groups, respectively) received the drug TDMQ20 by intragastric gavage twice a day for 14 consecutive days (at 0, 12.5, 25.0, 50.0 mg/kg in NaCl 0.9%). On the same schedule, C57BL/6 mice (as control group) received NaCl 0.9%. Treatment of WD mice with DPA (200 mg/kg) was used as comparison (DPA group). Six groups of 6 mice were used.
At the end of the treatment period, mice (10-week old) were placed in metabolic cages for 12 h in order to collect urine and feces. At the end of this 12 h-period, mice were anesthetized using 2.5% Avertin diluted in 0.9% NaCl at a dose of […] body weight and sacrificed. Cardiac blood was collected and left at room temperature for 30 minutes before centrifugation at 4° C. at 3000 r/min for 10 minutes to obtain serum samples. During this 30-min period, liver, kidney, brain and serum were also collected. Copper concentrations in urine and feces, serum, liver, kidney and brain were determined by inductively coupled plasma mass spectrometry (ICP-MS). Data analysis was carried out using SPSS Statistics software (version 26). Data are provided as mean values±standard error of the mean (SEM). Statistical analyses were performed using one-way ANOVA for liver, feces and urine, and by non-parametric test for serum, kidney, and brain. Differences with p>0.05 were considered as no significance (ns), * p<0.05, ** p<0.01, and *** p<0.001, n=6. Graph presentations were drawn with Prism GraphPad 8.0.2.

[2] = oral administration in adults, WD treatment; cited from earlier work
[3] = DPA 200 mg/kg/day gavage 14 days, mean of 6 mice ± SEM

Row | Structure (SMILES) | copper concentration in serum versus untreated WD mice ([1]; DPA 200 mg/kg/day) | Cu content Brain [1, 3] [mg/kg] | Cu content Feces [1, 3] [mg/kg] | Cu content Kidney [1, 3] [mg/kg] | Cu content Liver [1, 3] | Cu content Serum [1, 3] [mg/L] | Cu content Urine [1, 3] [mg/L] | adverse effects observed with time [2]
1 | CC(C)(S)[C@@H](N)C(=O)O [DPA, D-penicillamine, reference compound] | not significantly higher | 3.7 ± 0.3 | 96 ± 7 | 5.4 ± 0.3 | 265 mg/kg and 265 ± 9 mg/kg | 0.39 ± 0.03 | 2.8 ± 0.2 | nephrotoxicity, aplasia, retinitis and neurological deterioration
2 | NCCNCCNCCN [trientine, triethylene-tetramine] |  |  |  |  |  |  |  | bone marrow depression, anemia, skin rash and hemorrhagic gastritis
